Test results reported in patent US11724997B2, “Compounds and compositions for treating conditions associated with APJ receptor activity” (Annapurna Bio, Inc., priority 2018, dated 2023).

biological target: T1, APJ Receptor (Homo sapiens, UniProt P35414); assay: APJ cAMP assay: inhibition of forskolin-stimulated cAMP, enzyme fragment complementation, in CHO-K1 cells stably expressing the APJ Receptor; assay type: cell-based; conditions: CHO-K1 cell line (DiscoverX) stably expressing APJ Receptor; EC80 forskolin; 30 minutes at 37° C.; read-out: APJ cAMP EC50 Potency range
T1 sequence (P35414 1-380): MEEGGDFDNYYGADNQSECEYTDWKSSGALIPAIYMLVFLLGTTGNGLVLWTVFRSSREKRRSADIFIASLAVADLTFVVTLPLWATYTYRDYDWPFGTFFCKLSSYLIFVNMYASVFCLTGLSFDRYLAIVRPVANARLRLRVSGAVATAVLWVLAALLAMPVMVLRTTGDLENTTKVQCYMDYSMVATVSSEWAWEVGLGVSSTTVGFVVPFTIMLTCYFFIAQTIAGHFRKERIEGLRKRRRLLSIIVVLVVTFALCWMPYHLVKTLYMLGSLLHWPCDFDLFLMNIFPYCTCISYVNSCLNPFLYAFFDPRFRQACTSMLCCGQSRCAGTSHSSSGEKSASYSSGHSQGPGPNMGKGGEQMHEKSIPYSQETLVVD
Text: Activation of APJ receptor is known to inhibit forskolin-stimulated cyclic AMP (cAMP) production in cells in a pertussis toxin-sensitive manner which indicates primary coupling to the GαI subunit of the G protein heterotrimeric complex. In addition to signaling through G protein and inhibition of cAMP, APJ receptor activation also results in β-arrestin recruitment, receptor internalization and activation of extracellular-regulated kinases (ERKs).
In order to optimize functional activity directed toward Gi coupling we utilized a CHO-K1 cell line developed by DiscoverX stably expressing the APJ Receptor. Cells expressing APJR receptor were plated in a 384-well microtiter plates and incubated overnight at 37° C. with 5% CO2 to allow the cells to attach and grow. Media was then aspirated from the cells and replaced with 15 uL 2:1 Hanks Balanced Salt Solution (HBSS)/10 mM Hepes. cAMP XS+ Ab reagent. Five microliters (5 uL) of previously generated compound sample stocks at 4× final concentration in assay buffer containing 4×EC80 forskolin were then added to the cells and allowed to incubate at 37° C. for 30 minutes.
After incubation the assay signal was generated using a technology termed enzyme fragment complementation (EFC). In EFC the enzyme B-galactosidase is split into two complementary portions (EA and ED). The fragment ED is fused to cAMP and in the assay format competes with endogenous cAMP for binding to a cAMP specific antibody. Activated B-Gal is formed when exogenous EA fragment binds to free ED-cAMP (not bound to cAMP specific antibody). Activated enzyme levels are detected through conversion of B-gal chemiluminescent substrate which generates a detectable luminescence signal and read on standard microtiter plate.
The methodology for detection of cAMP using EFC requires incubation with 20 uL of cAMP XS+ ED/CL lysis cocktail for one hour followed by incubation with 20 uL cAMP XS+ EA reagent for three hours at room temperature. Microplates were read following signal generation with a PerkinElmer Envision instrument utilizing chemiluminescent signal detection.
Compound activity was analyzed using CBIS data analysis suite (ChemInnovation, CA).
Percentage activity was calculated using the following formula: % Activity=[…]×(1−(mean RLU of test sample−mean RLU of Max control)/(mean RLU of vehicle control−mean RLU of Max control))
The biological activity of the exemplified compounds of this invention determined by the assay described above is shown in Table 1. The APJ cAMP EC50 potency ranges are as follows: A: EC50<1 nM; B: 1≤EC50<100 nM; and C: 100≤EC50<10,000 nM.

| EC50 [nM] | Compound |
| --- | --- |
| 1 to 100 | COc1cccc(OC)c1-n1c(C(=O)NS(=O)(=O)Cc2ccccc2)nnc1-c1cccc(OC(F)F)n1 [Example 21, N-(benzylsulfonyl)-5-(6-(difluoromethoxy)pyridin-2-yl)-4-(2,6-dimethoxyphenyl)-4H-1,2,4-triazole-3-carboxamide] |
| 1 to 100 | COc1cccc(OC)c1-n1c(C(=O)NS(=O)(=O)Cc2ncccn2)nnc1-c1cccc(OC(F)F)n1 [Example 22, 5-(6-(Difluoromethoxy)pyridin-2-yl)-4-(2,6-dimethoxyphenyl)-N-((pyrimidin-2-ylmethyl)sulfonyl)-4H-1,2,4-triazole-3-carboxamide] |
| 100 to 10000 | COc1cccc(OC)c1-n1c(C(=O)NS(=O)(=O)Cc2ncccn2)nnc1-c1ccc(F)c(OC)n1 [Example 23, 4-(2,6-Dimethoxyphenyl)-5-(5-fluoro-6-methoxypyridin-2-yl)-N-((pyrimidin-2-ylmethyl)sulfonyl)-4H-1,2,4-triazole-3-carboxamide] |
| 100 to 10000 | COc1cccc(OC)c1-n1c(C(=O)NS(=O)(=O)Cc2ncc(C)cn2)nnc1-c1ccc(C)cn1 [Example 24, 4-(2,6-Dimethoxyphenyl)-5-(5-methylpyridin-2-yl)-N-(((5-methylpyrimidin-2-yl)methyl)sulfonyl)-4H-1,2,4-triazole-3-carboxamide] |
| 100 to 10000 | COc1cccc(OC)c1-n1c(C(=O)NS(=O)(=O)Cc2ncccn2)nnc1-c1cc(C)ccn1 [Example 25, 4-(2,6-Dimethoxyphenyl)-5-(4-methylpyridin-2-yl)-N-((pyrimidin-2-ylmethyl)sulfonyl)-4H-1,2,4-triazole-3-carboxamide] |
| < 1 | COc1cccc(-c2nnc(C(=O)NS(=O)(=O)Cc3ncccn3)n2-c2c(OC)cccc2OC)n1 [Example 26, 4-(2,6-dimethoxyphenyl)-5-(6-methoxypyridin-2-yl)-N-((pyrimidin-2-ylmethyl)sulfonyl)-4H-1,2,4-triazole-3-carboxamide] |
| < 1 | COc1cccc(-c2nnc(C(=O)NS(=O)(=O)Cc3ncc(C)cn3)n2-c2c(OC)cccc2OC)n1 [Example 27, 4-(2,6-Dimethoxyphenyl)-5-(6-methoxypyridin-2-yl)-N-(((5-methylpyrimidin-2-yl)methyl)sulfonyl)-4H-1,2,4-triazole-3-carboxamide] |
| < 1 | COc1cccc(-c2nnc(C(=O)NS(=O)(=O)Cc3ccccn3)n2-c2c(OC)cccc2OC)n1 [Example 28, 4-(2,6-Dimethoxyphenyl)-5-(6-methoxypyridin-2-yl)-N-((pyridin-2-ylmethyl)sulfonyl)-4H-1,2,4-triazole-3-carboxamide] |
| < 1 | COc1cccc(-c2nnc(C(=O)NS(=O)(=O)Cc3ncc(Cl)cn3)n2-c2c(OC)cccc2OC)n1 [Example 29, N-(((5-chloropyrimidin-2-yl)methyl)sulfonyl)-4-(2,6-dimethoxyphenyl)-5-(6-methoxypyridin-2-yl)-4H-1,2,4-triazole-3-carboxamide] |
| 1 to 100 | COc1cccc(-c2nnc(C(=O)NS(=O)(=O)Cc3cccc(F)c3)n2-c2c(OC)cccc2OC)n1 [Example 30, 4-(2,6-Dimethoxyphenyl)-N-((3-fluorobenzyl)sulfonyl)-5-(6-methoxypyridin-2-yl)-4H-1,2,4-triazole-3-carboxamide] |
| < 1 | COc1cccc(-c2nnc(C(=O)NS(=O)(=O)Cc3ccc(F)cc3)n2-c2c(OC)cccc2OC)n1 [Example 31, 4-(2,6-Dimethoxyphenyl)-N-((4-fluorobenzyl)sulfonyl)-5-(6-methoxypyridin-2-yl)-4H-1,2,4-triazole-3-carboxamide] |
| < 1 | COc1cccc(-c2nnc(C(=O)NS(=O)(=O)CC3CCCCC3)n2-c2c(OC)cccc2OC)n1 [Example 34, N-((cyclohexylmethyl)sulfonyl)-4-(2,6-dimethoxyphenyl)-5-(6-methoxypyridin-2-yl)-4H-1,2,4-triazole-3-carboxamide] |
| 1 to 100 | COc1cccc(-c2nnc(C(=O)NS(=O)(=O)CC3CC3)n2-c2c(OC)cccc2OC)n1 [Example 35, N-((cyclopropylmethyl)sulfonyl)-4-(2,6-dimethoxyphenyl)-5-(6-methoxypyridin-2-yl)-4H-1,2,4-triazole-3-carboxamide] |
| 1 to 100 | COc1cccc(-c2nnc(C(=O)NS(=O)(=O)Cc3cncnc3)n2-c2c(OC)cccc2OC)n1 [Example 36, 4-(2,6-Dimethoxyphenyl)-5-(6-methoxypyridin-2-yl)-N-((pyrimidin-5-ylmethyl)sulfonyl)-4H-1,2,4-triazole-3-carboxamide] |
| 1 to 100 | COc1cccc(-c2nnc(C(=O)NS(=O)(=O)Cc3cnccn3)n2-c2c(OC)cccc2OC)n1 [Example 37, 4-(2,6-Dimethoxyphenyl)-5-(6-methoxypyridin-2-yl)-N-((pyrazin-2-ylmethyl)sulfonyl)-4H-1,2,4-triazole-3-carboxamide] |
| < 1 | CCOc1cccc(-c2nnc(C(=O)NS(=O)(=O)Cc3ncc(C)cn3)n2-c2c(OC)cccc2OC)n1 [Example 38, 4-(2,6-Dimethoxyphenyl)-5-(6-ethoxypyridin-2-yl)-N-(((5-methylpyrimidin-2-yl)methyl)sulfonyl)-4H-1,2,4-triazole-3-carboxamide] |
| < 1 | CCOc1cccc(-c2nnc(C(=O)NS(=O)(=O)Cc3ncccn3)n2-c2c(OC)cccc2OC)n1 [Example 41, 4-(2,6-Dimethoxyphenyl)-5-(6-ethoxypyridin-2-yl)-N-((pyrimidin-2-ylmethyl)sulfonyl)-4H-1,2,4-triazole-3-carboxamide] |
| < 1 | CCOc1cccc(-c2nnc(C(=O)NS(=O)(=O)Cc3ncc(F)cn3)n2-c2c(OC)cccc2OC)n1 [Example 42, 4-(2,6-Dimethoxyphenyl)-5-(6-ethoxypyridin-2-yl)-N-(((5-fluoropyrimidin-2-yl)methyl)sulfonyl)-4H-1,2,4-triazole-3-carboxamide] |
| < 1 | CCOc1cccc(-c2nnc(C(=O)NS(=O)(=O)Cc3ncc(Cl)cn3)n2-c2c(OC)cccc2OC)n1 [Example 43, N-(((5-chloropyrimidin-2-yl)methyl)sulfonyl)-4-(2,6-dimethoxyphenyl)-5-(6-ethoxypyridin-2-yl)-4H-1,2,4-triazole-3-carboxamide] |
| < 1 | CCOc1cccc(-c2nnc(C(=O)NS(=O)(=O)Cc3ncc(OC)cn3)n2-c2c(OC)cccc2OC)n1 [Example 44, 4-(2,6-Dimethoxyphenyl)-5-(6-ethoxypyridin-2-yl)-N-(((5-methoxypyrimidin-2-yl)methyl)sulfonyl)-4H-1,2,4-triazole-3-carboxamide] |
| < 1 | CCOc1cccc(-c2nnc(C(=O)NS(=O)(=O)CCc3ccncc3)n2-c2c(OC)cccc2OC)n1 [Example 49, 4-(2,6-Dimethoxyphenyl)-5-(6-ethoxypyridin-2-yl)-N-((2-(pyridin-4-yl)ethyl)sulfonyl)-4H-1,2,4-triazole-3-carboxamide] |
| < 1 | CCOc1cccc(-c2nnc(C(=O)NS(=O)(=O)CCc3cccnc3)n2-c2c(OC)cccc2OC)n1 [Example 50, 4-(2,6-Dimethoxyphenyl)-5-(6-ethoxypyridin-2-yl)-N-((2-(pyridin-3-yl)ethyl)sulfonyl)-4H-1,2,4-triazole-3-carboxamide] |
| < 1 | CCOc1cccc(-c2nnc(C(=O)NS(=O)(=O)CCc3ccccn3)n2-c2c(OC)cccc2OC)n1 [Example 51, 4-(2,6-Dimethoxyphenyl)-5-(6-ethoxypyridin-2-yl)-N-((2-(pyridin-2-yl)ethyl)sulfonyl)-4H-1,2,4-triazole-3-carboxamide] |
| < 1 | CCOc1cccc(-c2nnc(C(=O)NS(=O)(=O)Cc3ncccc3F)n2-c2c(OC)cccc2OC)n1 [Example 52, 4-(2,6-Dimethoxyphenyl)-5-(6-ethoxypyridin-2-yl)-N-(((3-fluoropyridin-2-yl)methyl)sulfonyl)-4H-1,2,4-triazole-3-carboxamide] |
| < 1 | CCOc1cccc(-c2nnc(C(=O)NS(=O)(=O)Cc3ccccc3F)n2-c2c(OC)cccc2OC)n1 [Example 53, 4-(2,6-Dimethoxyphenyl)-5-(6-ethoxypyridin-2-yl)-N-((2-fluorobenzyl)sulfonyl)-4H-1,2,4-triazole-3-carboxamide] |
